In publication PMC10058671 (Pharmaceutics, 2023):
In brackets after ≈: the same amount, converted by molar mass. Like-named read-outs stand apart in the source and are kept apart here.

How the values were obtained:
seasonal influenza A = details: Call-3 cells, dose-dependent manner; cited from earlier work
[1] = Pharmacokinetic study after daily oral pyronaridine/artesunate in hamsters (noncompartmental analysis of observed blood, lung and trachea concentrations); parameters: species or system golden hamsters; details: for tolerability of the doses (no unscheduled deaths): 180/60 and 360/120 mg/kg pyronaridine/artesunate oral once a day for 3 days
Method: One hundred eight male golden hamsters were obtained from Janvier Lab. (Le Genest-Saint-Isle, France). All hamsters were maintained on a 12-h dark–light cycle at a temperature of 23 ± 3 °C and relative humidity of 55 ± 15%. This study was conducted according to the Guidelines for Ethical Conduct in the Care and Use of Animals and the rules of Good Laboratory Practice and was approved by the Institutional Animal Care and Use Committee (IACUC, protocol number SP2021-14) at Shin Poong Pharm. Co., Ltd. (Seoul, Republic of Korea).
The hamsters (102.01 ± 5.72 g) were divided into two groups: a low-dose group (n = 60) and a high-dose group (n = 48). […] Blood samples (0.5 mL) were drawn from the jugular vein into heparinized tubes at the following times: 0 (predose), 0.08, 0.25, 0.5, 0.75, 1, 2, 4, 8, 12, 24, 47, 48.08, 48.25, 48.5, 48.75, 49, 50, 52, 56, 60, and 72 h during oral administration for 3 days. The blood sampling was conducted 1–3 times per hamster within 72 h, and the tissues were collected after the last blood sampling. The number of animals was four per blood and tissue sampling time point, respectively (each n = 4). The lung and trachea tissues were immediately obtained after sacrificing hamsters, washed in normal saline, and dried with filter papers. The lung and trachea sampling times were as follows: 0.08, 0.25, 0.5, 0.75, 1, 4, 8, 24, 48.08, 48.25, 48.75, 52, and 72 h. Tissues were individually weighed and homogenized with water (lung or trachea tissue: water = 1:4 w/v). The lung and trachea tissue homogenate were stored at −70 °C until sample analysis. For pyronaridine quantification, whole blood samples were stored at −70 °C until sample analysis.
Liquid chromatography was conducted on the Agilent 1290 Infinity II LC System (Agilent Technologies Inc., Santa Clara, CA, USA) coupled to a 6490 Triple Quad Mass Spectrometer (Agilent Technologies Inc., Santa Clara, CA, USA). A Synergi Max-RP column (2.0 × 75 mm, 4 μm particle size, Phenomenex, Torrance, CA, USA) was used at a temperature of 25 °C. The mobile phase consisted of 0.04% TFA (mobile phase A) and methanol:acetonitrile (3:1 v/v, mobile phase B) with a flow rate of 0.2 mL/min. A gradient elution was used for the chromatographic separation of pyronaridine as follows: 0.0–1.5 min, 10% B; 1.5–1.6 min, 10–60% B; 1.6–4.0 min, 60% B; 4.0–4.1 min, 60–10% B; […], 10% B. The multiple reaction monitoring (MRM) mode was set with a positive electrospray ionization mode. The MRM transitions of pyronaridine and amodiaquine (internal standard, IS) were 518.2 > 447.1 and 356.2 > 283.0. The collision energy of pyronaridine and amodiaquine were 17 and 21 eV, and the cell accelerator voltage was 5 V for both compounds.
Chromatographic separation was performed with an Inertsil ODS column (2.1 × 100 mm, 5 µm particle size, GL Sciences, Tokyo, Japan) column at a temperature of 25 ℃. The mobile phase consisted of 10 mM ammonium acetate (mobile phase A) and acetonitrile (mobile phase B) with an isocratic elution (A:B = 10:90, v/v), and a flow rate of 0.2 mL/min. The mass spectrometer was operated on electrospray ionization positive mode.
Fifty μL of hamster blood, lung, or trachea tissue homogenates were added with 10 μL of the IS solution (10 μg/mL of amodiaquine). Added to the mixed sample were 125 μL of 0.5 M sodium phosphate tribasic dodecahydrate buffer (pH adjusted to 10.3 with 85% ortho-phosphoric acid) and 500 μL of ether, vortexed for 5 min and centrifuged at 21,130× g for 5 min. Then, 300 μL of supernatant were transferred to new microtubes and dried under nitrogen steam at room temperature. The dried residues were reconstituted with 100 μL of mobile phase (0.04% TFA:methanol:acetonitrile = 40:45:15, v/v/v) and vortexed for 5 min. After centrifugation at 21,130× g for 5 min, 5 μL of aliquot were injected into the UPLC-MS/MS system.
Then, 50 μL of hamster plasma, lung, or trachea tissue homogenates were added with 10 μL of the IS solution (5 μg/mL of artemisinin).

SARS-CoV-2 [2] = system: SARS-CoV-2; parameters: method as in PMID 32786284; details: anti-SARS-CoV-2; cited from earlier work
SARS-CoV-2 [3] = system: SARS-CoV-2; parameters: method as in PMID 34272426; details: range in different cell types; cited from earlier work
[4] = in vivo; cited from earlier work
[5] = rodents; cited from earlier work
SARS-CoV-2 [6] = details: Call-3 cells, dose-dependent manner; cited from earlier work
[7] = cited from earlier work
[8] = rat, in vivo; cited from earlier work
[9] = dog, in vivo; cited from earlier work
[10] = system: SARS-CoV-2 in Huh7.5 cells; parameters: method as in PMID 34755538; details: cited from earlier work
[11] = system: SARS-CoV-2 in Vero E6 cells; parameters: method as in PMID 33075512; details: cited from earlier work
SARS-CoV-2 [12] = system: SARS-CoV-2; parameters: method as in PMID 35609344; details: SARS-CoV-2 infected mice; cited from earlier work
[13] = system: SARS-CoV-2 in Calu-3 cells; parameters: method as in PMID 34755538; details: cited from earlier work
SARS-CoV-2 in Vero cells = details: cited from earlier work
SARS-CoV-2 [14] = system: SARS-CoV-2; parameters: method as in PMID 32916297; details: in vitro anti-SARS-CoV-2; cited from earlier work
[15] = fitted, parent-metabolite model
[16] = male, golden, hamster, in vivo, po, 180 mg/kg
[17] = male, golden, hamster, in vivo, po, 360 mg/kg

## C[C@H]1[C@H](OC(=O)CCC(=O)O)O[C@@H]2O[C@@]3(C)CC[C@H]4[C@H](C)CC[C@@H]1[C@@]24OO3 [Artesunate, artesunate]
Seasonal influenza A
  growth and viral replication of seasonal influenza A: inhibited the growth and viral replication
[1]
  tolerability of the doses (no unscheduled deaths): tolerated
SARS-CoV-2 [2]
  EC50: 13 µM
SARS-CoV-2 [3]
  EC50: 18.2 to 31.2 µM
fitted
  Klung (lung-to-blood partition coefficient): 10.33
  Ktrachea (trachea-to-blood partition coefficient): 1.48
  ka (first-order absorption rate constant): 1.74 h⁻¹
  klt (lung-to-trachea transfer rate constant): 0.34 h⁻¹
  ktl (trachea-to-lung transfer rate constant): 1.50 h⁻¹
hamster
  CL/F (apparent total clearance): 2517.70 L/h
[4]
  elimination half-life: 19.2 to 31.2 min
  time to peak concentrations: less than five minutes
  time until concentrations decreased below the quantification limit: 2 h
[5]
  maximal nonlethal dose: 500 mg/kg
SARS-CoV-2 [6]
  growth and viral replication of SARS-CoV-2: inhibited the growth and viral replication

## C[C@H]1[C@@H](O)O[C@@H]2O[C@@]3(C)CC[C@H]4[C@H](C)CC[C@@H]1[C@@]24OO3 [Dihydroartemisinin, dihydroartemisinin]
SARS-CoV-2 [2]
  EC50: 13.3 µM
[7]
  blood-to-plasma ratio / partition coefficient (Kb:p, Kb:p,m): 0.75
[15]
  Klung,m (lung-to-blood partition coefficient): 0.34
  Krest,m (rest of the body-to-blood partition coefficient): 1.21
  Ktrachea,m (trachea-to-blood partition coefficient): 1.08
  klt,m (lung-to-trachea transfer rate constant): 0.35 h⁻¹
  ktl,m (trachea-to-lung transfer rate constant): 6.98 h⁻¹
hamster
  CLm/F (apparent total clearance of metabolite): 10.33 L/h
[4]
  elimination half-life: 19.2 to 31.2 min
  time to peak concentrations: less than five minutes
[8]
  elimination half-life: 15 to 61.8 min
[9]
  elimination half-life: 0.39 to 0.66 h

## COc1ccc2nc3cc(Cl)ccc3c(Nc3cc(CN4CCCC4)c(O)c(CN4CCCC4)c3)c2n1 [Pyronaridine, Pyronaridine tetraphosphate]
Seasonal influenza A
  growth and viral replication of seasonal influenza A: inhibited the growth and viral replication
[10]
  concentration showing anti-SARS-CoV-2 activity: 103.6 ng/mL
[1]
  tolerability of the doses (no unscheduled deaths): tolerated
[1]; male, golden, hamster, in vivo, lung-to-blood AUC ratio
  Kp at 3 day: 51
[1]; male, golden, hamster, in vivo, lung-to-blood AUC ratio (=AUClung/AUCblood)
  Kp at 1 day: 25.5
[1]; [16]
  AUC at 1 day: 24100 ng·h/mL
  AUC at 3 day: 57100 ng·h/mL
  Cmax: 2700 ng/mL
[1]; [17]
  AUC at 1 day: 51000 ng·h/mL
  AUC at 3 day: 84900 ng·h/mL
  Cmax: 4540 ng/mL
  Tmax: 120 to 240 min
[1]; male, golden, hamster, in vivo, trachea-to-blood AUC ratio
  Kp at 3 day: 16.6
[1]; male, golden, hamster, in vivo, trachea-to-blood AUC ratio (=AUCtrachea/AUCblood)
  Kp at 1 day: 7.17
[7]
  blood-to-plasma ratio: 4.9–17.8
[11]
  EC50: 0.373 µg/mL (≈ 0.72 µM)
SARS-CoV-2 [12]
  viral load in the lungs: significant inhibition of the viral load in the lungs
fitted
  Klung (lung-to-blood partition coefficient): 26.06
  Krest (rest of the body-to-blood partition coefficient): 5.25 × 10^−7
  Ktrachea (trachea-to-blood partition coefficient): 8.67
  ka (first-order absorption rate constant): 0.03 h⁻¹
  klt (lung-to-trachea transfer rate constant): 0.92 h⁻¹
  ktl (trachea-to-lung transfer rate constant): 1.01 h⁻¹
hamster
  CL/F (apparent total clearance): 0.21 L/h
[5]
  maximal nonlethal dose: 1500 mg/kg
[8]
  elimination half-life: two to four days
SARS-CoV-2 [6]
  growth and viral replication of SARS-CoV-2: inhibited the growth and viral replication
[9]
  elimination half-life: 60 h
[13]
  concentration showing anti-SARS-CoV-2 activity: 8.6 ng/mL
SARS-CoV-2 in Vero cells; after 24 h of culture
  EC50: 0.5699 µg/mL (≈ 1.1 µM)
SARS-CoV-2 in Vero cells; after 48 h of culture
  EC50: 1.1397 µg/mL (≈ 2.2 µM)
SARS-CoV-2 [14]
  EC50: 0.72 µM
  EC90: 0.75 µM
